The text below walks through data of US11629171B2, “Beta-hairpin peptidomimetics” (POLYPHOR AG, priority 2017, dated 2023).

Type in all cases: cell-based
For series [1], the system named is Acinetobacter baumannii 872842. To be noted: 872842. The essentials: (§1)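 Broth microdilution per CLSI; MH-II (cation-adjusted) + 0.002% P-80 final; ~10^6 CFU/mL inoculum; 2-fold peptide series; 35° C, 18-20 h; MIC = no visible growth, μg/mL.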
The test system of series [2] is Acinetobacter baumannii DSM 30008. Particulars: DSM 30008. In outline:
as §1

The subject of series [3] is Enterobacter cloacae 848840. To be noted: 848840. In outline:
as §1

Another series concerns Escherichia coli 926415. Particulars: 926415. In outline: as §1
Series [4] concerns Escherichia coli ATCC 25922. Particulars: ATCC 25922. In outline:
as §1

Series [5] deals with Klebsiella pneumoniae 968733. Particulars: 968733. The essentials: as §1
Series [6] has as its system Klebsiella pneumoniae SSI #3010. Particulars: SSI #3010. In outline: as §1
Series [7] relates to Pseudomonas aeruginosa ATCC 27853. Particulars: ATCC 27853. In outline:
as §1

Series [8] concerns human red blood cells (hRBC). The experiment in a line: Hemolysis. To be noted: red cells of human, 1 h, 200. The essentials: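 Washed fresh human RBC (20% v/v) incubated with peptide at 200 μg/mL for 1 h at 37° C with shaking. Supernatant OD540 measured after dilution, blank corrected; percent hemolysis = OD540 peptide / OD540 of 2% Triton X-100 lysis × 100, PBS with 10% water as 0%.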

Each structure is given as a SMILES string. Values after ≈ are worked out from the molar mass of the structure shown. Where a SMILES comes first, the peptide text is derived from it. Bridges are numbered along the chain shown (N, C = ends). Roman numbers before positions name the chains, in order. [ ]: non-standard residue; d: D form. The star is where a group is joined. Heptanoyl(6-Me) = CC(C)CCCCC(=O)*; Tle = CC(C)(C)[C@H](N)C(=O)O; dDab = NCC[C@@H](N)C(=O)O; hSer = N[C@@H](CCO)C(=O)O; Nle = CCCC[C@H](N)C(=O)O; Orn = NCCC[C@H](N)C(=O)O; Dab = NCC[C@H](N)C(=O)O; Dap = NC[C@H](N)C(=O)O

In general, MIC refers to the least concentration at which growth counts as inhibited. High values mean weaker potency, low ones greater potency.

For `CCCC[C@H](NC(C)=O)C(=O)N[C@H]1CCCNC(=O)[C@@H]([C@H](C)O)NC(=O)[C@H](C(C)(C)C)NC(=O)[C@H](CO)NC(=O)[C@H](Cc2c[nH]c3ccccc23)NC(=O)[C@H](CCO)NC(=O)[C@@H](CCN)NC(=O)[C@H](CCC(=O)N[C@@H](CCN)C(=O)N[C@H](C(=O)N[C@@H](CN)C(=O)N[C@H]2CCNC(=O)[C@H]([C@@H](C)O)NC(=O)[C@H](CCN)NC(=O)[C@H](CCN)NC(=O)[C@H](CC(C)C)NC(=O)[C@@H](CC(C)C)NC(=O)[C@H](CCN)NC2=O)[C@@H](C)O)NC(=O)[C@H](CN)NC(=O)[C@H](Cc2ccc(O)cc2)NC1=O` [Ex. 34] (I: Ac-[Nle][Orn]Y[Dap]E[dDab][hSer]WS[Tle][dT] / II: [Dab]T[Dap][Dab][Dab][dL]L[Dab][Dab]T; lactam I:2-I:C, II:4-II:C; amide I:5-II:N), the minimal inhibitory concentration (MIC) stood at 0.0625 µg/mL (≈ 0.0268 µM) in series [1]; 0.03125 µg/mL (≈ 0.0134 µM) in series [2]; 0.125 µg/mL (≈ 0.0536 µM) in [3]; 0.0625 µg/mL (≈ 0.0268 µM) against Escherichia coli 926415; 0.0625 µg/mL (≈ 0.0268 µM) in series [4]; 0.125 µg/mL (≈ 0.0536 µM) in [5]. Also, the MIC in series [6] was found to be 0.125 µg/mL (≈ 0.0536 µM); in [7], 0.25 µg/mL (≈ 0.107 µM). Besides, the “Hemolysis at 200 μg/mL” value in [8] is under 1%.
As for `CC(=O)N[C@H](C(=O)N[C@H]1CCNC(=O)[C@@H]([C@H](C)O)NC(=O)[C@H](C(C)(C)C)NC(=O)[C@H](CO)NC(=O)[C@H](Cc2c[nH]c3ccccc23)NC(=O)[C@H](CCO)NC(=O)[C@@H](CCN)NC(=O)[C@H](CCC(=O)N[C@@H](CCN)C(=O)N[C@H](C(=O)N[C@@H](CN)C(=O)N[C@H]2CCNC(=O)[C@H]([C@@H](C)O)NC(=O)[C@H](CCN)NC(=O)[C@H](CCN)NC(=O)[C@H](CC(C)C)NC(=O)[C@@H](CC(C)C)NC(=O)[C@H](CCN)NC2=O)[C@@H](C)O)NC(=O)[C@H](CN)NC(=O)[C@H](Cc2ccc(O)cc2)NC1=O)C(C)C` [Ex. 35] (I: Ac-V[Dab]Y[Dap]E[dDab][hSer]WS[Tle][dT] / II: [Dab]T[Dap][Dab][Dab][dL]L[Dab][Dab]T; lactam I:2-I:C, II:4-II:C; amide I:5-II:N), the minimal inhibitory concentration (MIC) in series [1] is 0.25 µg/mL (≈ 0.108 µM); in series [2], 0.125 µg/mL (≈ 0.0542 µM); in series [3] it was 0.25 µg/mL (≈ 0.108 µM); with Escherichia coli 926415, 1 µg/mL (≈ 0.434 µM); in series [4], 0.125 µg/mL (≈ 0.0542 µM); in series [5], 0.25 µg/mL (≈ 0.108 µM). Moreover, the MIC in [6] and in series [7] was 0.25 µg/mL (≈ 0.108 µM) throughout. Moreover, the “Hemolysis at 200 μg/mL” value in series [8] is listed as under 1%.
Consider `CC(=O)N[C@@H](Cc1ccccc1)C(=O)N[C@H]1CCCNC(=O)[C@@H]([C@H](C)O)NC(=O)[C@H](C(C)(C)C)NC(=O)[C@H](CO)NC(=O)[C@H](Cc2c[nH]c3ccccc23)NC(=O)[C@H](CCO)NC(=O)[C@@H](CCN)NC(=O)[C@H](CCC(=O)N[C@@H](CCN)C(=O)N[C@H](C(=O)N[C@@H](CN)C(=O)N[C@H]2CCNC(=O)[C@H]([C@@H](C)O)NC(=O)[C@H](CCN)NC(=O)[C@H](CCN)NC(=O)[C@H](CC(C)C)NC(=O)[C@@H](CC(C)C)NC(=O)[C@H](CCN)NC2=O)[C@@H](C)O)NC(=O)[C@H](CN)NC(=O)[C@H](Cc2ccc(O)cc2)NC1=O` [Ex. 36] (I: Ac-F[Orn]Y[Dap]E[dDab][hSer]WS[Tle][dT] / II: [Dab]T[Dap][Dab][Dab][dL]L[Dab][Dab]T; lactam I:2-I:C, II:4-II:C; amide I:5-II:N), for which the MIC came out at 0.0625 µg/mL (≈ 0.0264 µM) in series [1]; 0.0625 µg/mL (≈ 0.0264 µM) in series [2]; 0.125 µg/mL (≈ 0.0528 µM) in series [3]; 0.125 µg/mL (≈ 0.0528 µM) in the series on Escherichia coli 926415; 0.0625 µg/mL (≈ 0.0264 µM) in series [4]; 0.25 µg/mL (≈ 0.106 µM) in [5]. In addition, the MIC came out at 0.125 µg/mL (≈ 0.0528 µM) in [6] and 0.25 µg/mL (≈ 0.106 µM) in [7]. Also, in series [8], the “Hemolysis at 200 μg/mL” value is under 1%.
Consider `CC(=O)N[C@H](C(=O)N[C@H]1CCCNC(=O)[C@@H]([C@H](C)O)NC(=O)[C@H](C(C)C)NC(=O)[C@H](CO)NC(=O)[C@H](Cc2c[nH]c3ccccc23)NC(=O)[C@H](CCN)NC(=O)[C@@H](CCN)NC(=O)[C@H](CCC(=O)N[C@@H](CCN)C(=O)N[C@H](C(=O)N[C@@H](CN)C(=O)N[C@H]2CCNC(=O)[C@H]([C@@H](C)O)NC(=O)[C@H](CCN)NC(=O)[C@H](CCN)NC(=O)[C@H](CC(C)C)NC(=O)[C@@H](CC(C)C)NC(=O)[C@H](CCN)NC2=O)[C@@H](C)O)NC(=O)[C@H](CN)NC(=O)[C@H](Cc2ccc(O)cc2)NC1=O)C(C)C` [Ex. 37] (I: Ac-V[Orn]Y[Dap]E[dDab][Dab]WSV[dT] / II: [Dab]T[Dap][Dab][Dab][dL]L[Dab][Dab]T; lactam I:2-I:C, II:4-II:C; amide I:5-II:N), for which the MIC in series [1] was 1 µg/mL (≈ 0.434 µM); in [2], 0.125 µg/mL (≈ 0.0542 µM); in [3], 0.25 µg/mL (≈ 0.108 µM); with Escherichia coli 926415, 0.5 µg/mL (≈ 0.217 µM); in [4] it was 0.25 µg/mL (≈ 0.108 µM); in series [5], 2 µg/mL (≈ 0.868 µM). Further, the figures for the MIC in [6] and in [7] were 0.25 µg/mL (≈ 0.108 µM) and 0.5 µg/mL (≈ 0.217 µM), respectively. In addition, in series [8], the “Hemolysis at 200 μg/mL” value came to 1%.
Consider `CC(C)CCCCC(=O)N[C@H](C(=O)N[C@H]1CSSC[C@@H](C(=O)N[C@@H](CO)C(N)=O)NC(=O)[C@H](C(C)C)NC(=O)[C@H](CCO)NC(=O)[C@H](Cc2c[nH]c3ccccc23)NC(=O)[C@H](CCO)NC(=O)[C@@H](CCN)NC(=O)[C@H](CCC(=O)N[C@@H](CCN)C(=O)N[C@H](C(=O)N[C@@H](CCN)C(=O)N[C@H]2CCNC(=O)[C@H]([C@@H](C)O)NC(=O)[C@H](CCN)NC(=O)[C@H](CCN)NC(=O)[C@H](CC(C)C)NC(=O)[C@@H](CC(C)C)NC(=O)[C@H](CCN)NC2=O)[C@@H](C)O)NC(=O)[C@H](CCN)NC(=O)[C@H](Cc2ccc(O)cc2)NC1=O)C(C)C` [Ex. 40] (I: {Heptanoyl(6-Me)}-VCY[Dab]E[dDab][hSer]W[hSer]VCS-NH2 / II: [Dab]T[Dab][Dab][Dab][dL]L[Dab][Dab]T; disulfide I:2-I:11; amide I:5-II:N; lactam II:4-II:C), for which the MIC in series [1] worked out at 0.5 µg/mL (≈ 0.198 µM); in series [2], 1 µg/mL (≈ 0.396 µM); in series [3], 0.5 µg/mL (≈ 0.198 µM); against Escherichia coli 926415 it was 1 µg/mL (≈ 0.396 µM); in [4], 0.125 µg/mL (≈ 0.0495 µM); in [5] it was 0.25 µg/mL (≈ 0.099 µM). The MIC in series [6] was found to be 0.5 µg/mL (≈ 0.198 µM); in [7], 0.25 µg/mL (≈ 0.099 µM). For the same compound, in series [8], the “Hemolysis at 200 μg/mL” value is on record as 2%.
For the compound `CC(=O)N[C@H](C(=O)N[C@H]1CSSC[C@@H](C(=O)N[C@@H](CO)C(N)=O)NC(=O)[C@H](C(C)(C)C)NC(=O)[C@H](CO)NC(=O)[C@H](Cc2c[nH]c3ccccc23)NC(=O)[C@H]([C@@H](C)O)NC(=O)[C@@H](CCN)NC(=O)[C@H](CCC(=O)N[C@@H](CCN)C(=O)N[C@H](C(=O)N[C@@H](CCN)C(=O)N[C@H]2CCNC(=O)[C@H]([C@@H](C)O)NC(=O)[C@H](CCN)NC(=O)[C@H](CCN)NC(=O)[C@H](CC(C)C)NC(=O)[C@@H](CC(C)C)NC(=O)[C@H](CCN)NC2=O)[C@@H](C)O)NC(=O)[C@H](CCN)NC(=O)[C@H](Cc2ccc(O)cc2)NC1=O)C(C)C` [Ex. 44] (I: Ac-VCY[Dab]E[dDab]TWS[Tle]CS-NH2 / II: [Dab]T[Dab][Dab][Dab][dL]L[Dab][Dab]T; disulfide I:2-I:11; amide I:5-II:N; lactam II:4-II:C), the MIC in series [1] amounted to 0.125 µg/mL (≈ 0.0512 µM); in series [2], 0.125 µg/mL (≈ 0.0512 µM); in series [3] it was 0.125 µg/mL (≈ 0.0512 µM); against Escherichia coli 926415 it was 0.125 µg/mL (≈ 0.0512 µM); in [4], 0.0625 µg/mL (≈ 0.0256 µM); in series [5], 0.25 µg/mL (≈ 0.102 µM). For the same compound, the MIC in series [6] and in [7] was 0.125 µg/mL (≈ 0.0512 µM) throughout. In addition, the “Hemolysis at 200 μg/mL” value in series [8] is on record as under 1%.
For `CC(=O)N[C@H](C(=O)N[C@H]1CSSC[C@@H](C(=O)N[C@@H](CO)C(N)=O)NC(=O)[C@H](C(C)C)NC(=O)[C@H](CO)NC(=O)[C@H](Cc2c[nH]c3ccccc23)NC(=O)[C@H]([C@@H](C)O)NC(=O)[C@@H](CCN)NC(=O)[C@H](CCC(=O)N[C@@H](CCN)C(=O)N[C@H](C(=O)N[C@@H](CCN)C(=O)N[C@H]2CCNC(=O)[C@H]([C@@H](C)O)NC(=O)[C@H](CCN)NC(=O)[C@H](CCN)NC(=O)[C@H](CC(C)C)NC(=O)[C@@H](CC(C)C)NC(=O)[C@H](CCN)NC2=O)[C@@H](C)O)NC(=O)[C@H](CCN)NC(=O)[C@H](Cc2ccc(O)cc2)NC1=O)C(C)C` [Ex. 45] (I: Ac-VCY[Dab]E[dDab]TWSVCS-NH2 / II: [Dab]T[Dab][Dab][Dab][dL]L[Dab][Dab]T; disulfide I:2-I:11; amide I:5-II:N; lactam II:4-II:C), the MIC in series [1] came to 0.25 µg/mL (≈ 0.103 µM); in series [2], 0.0625 µg/mL (≈ 0.0258 µM); in series [3], 0.25 µg/mL (≈ 0.103 µM); in the series with Escherichia coli 926415, 0.5 µg/mL (≈ 0.206 µM); in series [4], 0.0625 µg/mL (≈ 0.0258 µM); in series [5] it was 0.5 µg/mL (≈ 0.206 µM). For the same compound, the MIC in series [6] and in series [7] was 0.125 µg/mL (≈ 0.0515 µM) in each case. Moreover, the “Hemolysis at 200 μg/mL” value in series [8] was under 1%.
